Test results as given in the supplement of paper PMC10307832.

What was measured:
Assay in all cases: relative viability (nuclei count vs DMSO), 5 days (fraction); higher = more cells survive
Axitinib + Phenformin = compound: CNC(=O)c1ccccc1Sc1ccc2c(/C=C/c3ccccn3)n[nH]c2c1 [Axitinib] + N=C(N)NC(=N)NCCc1ccccc1 [Phenformin] (partner 250 µM)
Summary of the method: (§1)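 Lung cancer cell lines were pin-tool dosed in 1536-well plates on the day after seeding, with either a lone drug or a fixed anchor-drug dose plus five library-drug doses (not always all listed) in √10 steps. Nuclei were counted on 4× images after 5 days. Relative viability is the ratio of treated-well to vehicle-well nuclei counts, with each value a median of duplicate plates.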

[1] = compound: CC1=CC=C(C=C1)C(=O)CN2C3=C(CCCC3)SC2=N [Pifithrin_alpha] + CC(=O)c1c(C)c2cnc(Nc3ccc(N4CCNCC4)cn3)nc2n(C2CCCC2)c1=O [Palbociclib] (partner 0.5 µM)
Summary of the method: as §1

Bemcentinib + Phenformin = compound: Nc1nc(Nc2ccc3c(c2)CC[C@@H](N2CCCC2)CC3)nn1-c1cc2c(nn1)-c1ccccc1CCC2 [Bemcentinib] + N=C(N)NC(=N)NCCc1ccccc1 [Phenformin] (partner 250 µM)
Summary of the method: as §1

Axitinib + Olaparib = compound: CNC(=O)c1ccccc1Sc1ccc2c(/C=C/c3ccccn3)n[nH]c2c1 [Axitinib] + O=C(c1cc(Cc2n[nH]c(=O)c3ccccc23)ccc1F)N1CCN(C(=O)C2CC2)CC1 [Olaparib] (partner 8 µM)
Summary of the method: as §1

| Cell Line | relative viability (Axitinib + Phenformin; first compound 0.005 µM) | relative viability (Axitinib + Phenformin; first compound 0.01581 µM) | relative viability (Axitinib + Phenformin; first compound 0.05 µM) | relative viability (Axitinib + Phenformin; first compound 0.1581 µM) | relative viability (Axitinib + Phenformin; first compound 0.5 µM) | relative viability ([1]; first compound 1 µM) | relative viability ([1]; first compound 3.162 µM) | relative viability ([1]; first compound 10 µM) | relative viability ([1]; first compound 100 µM) | relative viability (Bemcentinib + Phenformin; first compound 0.04 µM) | relative viability (Bemcentinib + Phenformin; first compound 0.1265 µM) | relative viability (Bemcentinib + Phenformin; first compound 0.4 µM) | relative viability (Bemcentinib + Phenformin; first compound 1.265 µM) | relative viability (Bemcentinib + Phenformin; first compound 4 µM) | relative viability (Axitinib + Olaparib; first compound 0.005 µM) | relative viability (Axitinib + Olaparib; first compound 0.01581 µM) | relative viability (Axitinib + Olaparib; first compound 0.05 µM) | relative viability (Axitinib + Olaparib; first compound 0.1581 µM) | relative viability (Axitinib + Olaparib; first compound 0.5 µM) | relative viability ([1]; first compound 31.62 µM) |
| --- | --- | --- | --- | --- | --- | --- | --- | --- | --- | --- | --- | --- | --- | --- | --- | --- | --- | --- | --- | --- |
| NCI-H441 | 0.929 | 0.803 | 0.882 | 0.76 | 0.834 | 0.203 | 0.249 | 0.217 | 0.19 | 0.831 | 0.919 | 1.04 | 1.04 | 0.948 | 0.675 | 0.499 | 0.539 | 0.503 | 0.453 | – |
| NCI-H2087 | 0.48 | 0.418 | 0.51 | 0.444 | 0.563 | 0.219 | 0.198 | 0.245 | 0.207 | 0.435 | 0.481 | 0.52 | 0.492 | 0.487 | 0.741 | 0.503 | 0.642 | 0.549 | 0.661 | 0.195 |
| RERF-LC-KJ | 0.462 | 0.445 | 0.396 | 0.457 | 0.458 | 0.91 | 0.974 | 0.886 | 0.635 | 0.42 | 0.424 | 0.412 | 0.391 | 0.334 | 1.1 | 0.853 | 0.964 | 0.81 | 0.951 | 0.66 |
| NCI-H1437 | 0.335 | 0.314 | 0.357 | 0.277 | 0.299 | 0.325 | 0.326 | 0.218 | 0.172 | 0.305 | 0.33 | 0.375 | 0.3 | 0.296 | 0.677 | 0.623 | 0.62 | 0.611 | 0.629 | 0.217 |
| NCI-H1651 | 0.295 | 0.295 | 0.347 | 0.304 | 0.353 | 0.534 | 0.513 | 0.513 | 0.514 | 0.352 | 0.324 | 0.283 | 0.316 | 0.354 | 0.194 | 0.19 | 0.198 | 0.175 | 0.206 | 0.569 |
| PC-14 | 0.645 | – | 0.714 | 0.559 | 0.797 | 0.651 | 0.513 | 0.515 | 0.134 | 0.458 | 0.704 | 0.648 | 0.581 | 0.465 | 0.326 | 0.368 | 0.275 | 0.4 | 0.24 | 0.191 |
| NCI-H1792 | 0.323 | – | – | 0.304 | 0.186 | – | 0.589 | 0.637 | 0.669 | 0.293 | 0.293 | 0.326 | 0.193 | 0.248 | 0.458 | 0.445 | 0.576 | 0.485 | 0.651 | 0.535 |
| NCI-H1666 | 0.588 | 0.559 | 0.552 | 0.586 | 0.502 | 0.642 | 0.68 | 0.591 | 0.646 | 0.572 | 0.675 | 0.564 | 0.564 | 0.635 | 0.741 | 0.756 | 0.7 | 0.765 | 0.728 | 0.612 |
| NCI-H661 | 0.281 | 0.29 | 0.271 | 0.267 | 0.285 | 0.397 | 0.4 | 0.36 | 0.334 | 0.268 | 0.263 | 0.28 | 0.271 | 0.286 | 0.724 | 0.753 | 0.741 | 0.698 | 0.834 | 0.386 |
| LK-2 | 0.674 | 0.202 | 0.481 | 0.353 | 0.293 | 0.686 | 0.644 | 0.687 | 0.782 | 0.461 | 0.483 | 0.443 | 0.463 | 0.828 | 0.65 | 0.609 | 0.762 | 0.712 | 0.545 | – |
| HCC-44 | 0.165 | 0.27 | 0.211 | 0.198 | 0.176 | 0.825 | 0.922 | 0.867 | 0.812 | 0.155 | 0.28 | 0.175 | 0.187 | 0.149 | 0.955 | 0.961 | 0.963 | 0.947 | 1 | 0.81 |
| PC-3 [JPC-3] | 0.491 | 0.445 | 0.493 | 0.507 | 0.539 | – | 0.519 | – | 0.458 | 0.477 | 0.454 | 0.473 | 0.497 | 0.448 | 1.16 | – | 1.19 | 1.12 | 1.44 | 0.455 |
| LC-2-ad | 0.578 | 0.592 | 0.586 | 0.527 | 0.498 | 0.514 | 0.503 | 0.51 | 0.432 | 0.535 | 0.601 | 0.592 | 0.602 | 0.588 | 0.735 | 0.693 | 0.738 | 0.708 | 0.76 | 0.375 |
| ChaGo-K-1 | 0.467 | 0.428 | 0.506 | 0.437 | 0.469 | 0.87 | 0.955 | 0.901 | 0.911 | 0.486 | 0.544 | 0.517 | 0.473 | 0.442 | 0.473 | 0.445 | 0.412 | 0.441 | 0.438 | 0.509 |
| NCI-H460 | 0.553 | 0.515 | 0.583 | 0.518 | 0.678 | 0.102 | 0.102 | 0.12 | 0.0814 | 0.552 | 0.7 | 0.522 | 0.607 | 0.568 | 0.411 | 0.402 | 0.514 | 0.379 | 0.498 | 0.0866 |
| NCI-H1395 | 0.485 | 0.382 | 0.465 | 0.441 | 0.45 | – | 0.617 | 0.62 | 0.603 | 0.406 | 0.43 | 0.434 | 0.451 | 0.446 | 0.51 | 0.446 | 0.432 | 0.435 | 0.545 | – |
| NCI-H727 | 0.7 | 0.519 | 0.589 | 0.536 | 0.728 | 0.615 | 0.678 | 0.657 | 0.667 | 0.626 | 0.709 | 0.493 | 0.363 | 0.671 | 0.59 | 0.756 | 0.759 | 0.665 | 0.652 | 0.636 |
| NCI-H838 | 0.697 | 0.509 | 0.763 | 0.564 | 0.654 | 0.192 | 0.189 | 0.203 | 0.183 | 0.544 | 0.493 | 0.561 | 0.659 | 0.566 | 0.869 | 0.712 | 0.806 | 0.756 | 0.783 | 0.188 |
| NCI-H1755 | 0.62 | 0.613 | 0.604 | 0.634 | 0.658 | 0.433 | 0.437 | 0.441 | 0.443 | 0.652 | 0.62 | 0.648 | 0.59 | 0.622 | 0.897 | 0.867 | 0.852 | 0.847 | 0.852 | 0.424 |
| EMC-BAC-2 | 0.552 | 0.535 | 0.483 | 0.547 | 0.57 | 0.493 | 0.542 | 0.489 | 0.506 | 0.515 | 0.516 | 0.556 | 0.507 | 0.514 | 0.5 | 0.542 | 0.516 | 0.512 | 0.508 | 0.422 |
| EKVX | 0.243 | 0.222 | 0.214 | 0.233 | 0.216 | 0.387 | 0.33 | 0.321 | 0.276 | 0.256 | 0.215 | 0.239 | 0.277 | 0.237 | 0.979 | 0.826 | 0.902 | 0.883 | 1.03 | 0.257 |
| NCI-H647 | 0.663 | 0.498 | 0.558 | 0.504 | 0.893 | 0.376 | 0.364 | 0.353 | 0.285 | 0.631 | 0.488 | 0.674 | 0.62 | 0.544 | 0.581 | 0.527 | 0.708 | 0.622 | 0.644 | 0.269 |
| NCI-H358 | 0.344 | 0.32 | 0.332 | 0.309 | 0.388 | 0.134 | 0.151 | 0.137 | 0.119 | 0.321 | 0.348 | 0.325 | 0.355 | 0.39 | 0.741 | 0.567 | 0.6 | 0.594 | 0.682 | 0.115 |
| LU99A | 0.784 | 0.823 | 0.981 | 0.88 | 0.91 | 0.39 | 0.445 | 0.387 | 0.453 | 0.806 | 0.856 | 0.835 | 0.801 | 0.827 | 0.272 | 0.287 | 0.273 | 0.286 | 0.304 | – |
| NCI-H1734 | 0.423 | 0.401 | 0.371 | 0.404 | 0.366 | 0.38 | 0.362 | 0.33 | 0.355 | 0.406 | 0.384 | 0.42 | 0.434 | 0.372 | 0.593 | 0.571 | 0.62 | 0.585 | 0.747 | 0.313 |
| HARA | 0.421 | 0.412 | 0.493 | 0.392 | 0.488 | 0.219 | 0.266 | 0.26 | 0.226 | 0.41 | 0.541 | 0.539 | 0.434 | 0.498 | 1.02 | 0.88 | 0.835 | 0.95 | 0.921 | 0.265 |
| NCI-H2228 | 0.324 | 0.326 | 0.412 | 0.36 | 0.269 | 0.833 | 0.75 | 0.659 | 0.853 | 0.157 | 0.329 | 0.395 | 0.346 | 0.295 | 0.636 | 0.706 | 0.713 | 0.466 | 0.91 | 0.453 |
